Read-outs that look alike come from different tables or passages of the source.
Assay: In vivo rat tracer distribution and brain uptake (LC-MS/MS)
Parameters: species or system Sprague-Dawley rats
Conditions: Sprague-Dawley, iv, 10 μg/kg i.v.
Method: Stock Formulation: Prepare a tracer stock solution at 0.5 mg/mL in 25% HP-BCD/PW (corrected for salt weight). Vortex thoroughly for 30 sec and place in bath sonication for 30 mins. Confirm the stock formulation is a clear solution or homogeneous suspension. Acid (10 μL acetic acid) or base (10 μL 5N NaOH), probe sonication, or a sonic bath may be used to aid in solubilization.
Final Dosing Formulation: If the stock formulation is a solution or homogeneous suspension, allow the stock solution to sit at room temperature for 5 min, and confirm and document the appearance of the stock formulation. Dilute the stock solution to the appropriate dose concentrations with 25% HP-BCD/PW. Vortex the final dosing solutions for 30 sec. Final tracer dosing solution is used for generation of the LC/MS/MS calibration standards in the appropriate matrix.
Study populations: Animal studies are performed under protocols approved by Eli Lilly and Company and PreClinOmics Institutional Animal Care and Use Committee. Twenty Sprague-Dawley rats weighing 200-300 g are obtained from Harlan Sprague Dawley Inc. (Indianapolis, Ind.) and are randomized into 4 groups of 5 animals each. Animals have access to food and water ad libitum before the study.
Live Phase Methods: Five animals per dose group are used. Each animal receives 10 μg/kg of the CGRP tracer compound administered intravenously in the lateral tail vein. Animals are euthanized by cervical dislocation followed by decapitation or live decapitation after 5, 10, 20 or 40 min survival intervals.
Trunk blood is collected in EDTA-coated Eppendorf tubes and stored on wet ice until study completion. The whole brain is rapidly removed, and lightly rinsed with sterile water. Frontal cortex, hippocampus, cerebellum, brainstem, and striatum brain tissues are dissected, weighed, stored in 1.5 mL Eppendorf tubes, and placed on wet ice until completion of live phase study.
Using a drug naïve test subject, blood and seven cortical brain tissues samples are collected for use in generating blank and standard curve samples.
Tissue—Tissue samples are kept on wet ice until the completion of the live phase. Tissue samples collected from test and naïve subjects are homogenized at PreClinOmics (Indianapolis, Ind., USA) and immediately taken to AIT Bioscience (Indianapolis, Ind., USA) on wet ice to be centrifuged along with an excel sheet indicating tissue weights, amount of ACN+0.1% HCOOH added to all tissue samples, and how the naive tissues were spiked for standards. Details on processing at PreClinOmics are as follows:
ACN containing 0.1% HCOOH is added to each tissue sample at a volume of four times the weight of the tissue sample (e.g., Add 600 μL ACN to a 150 mg brain tissue). The sample is homogenized via probe sonication. The standard curve is a 6-point curve with the range of 0.3-60 ng/g, linear regression, correlation coefficient, R^2, minimum of ≥0.95. Calibration standards are prepared from control tissue matrix homogenate (of the same organ) spiked with a calculated volume of standard (prepared from the tracer dosing solution used during the live phase). The homogenized tissue samples and spiked standards are transferred to AIT Bioscience on wet ice. Once at AIT Biosciences, all homogenized samples are centrifuged for 20 min at 14,000 rpm. The supernatant solution is diluted with an internal standard solution (1.0 ng/mL diphenhydramine in water) at a ratio of 1:4. Following dilution of the supernatant, if the total sample volume in the well plate is too small for injection, an additional dilution is performed using the mobile phase, ACN:water:0.1% HCOOH (20:80:0.1), at a ratio of 1:1. This solution is mixed thoroughly and analyzed via LC/MS/MS for tracer compound. Additional dilutions incurred due to small sample volume have an appropriate dilution factor applied during regression analysis.
Blood Samples—Whole blood samples are kept on wet ice until the completion of the live phase. […]

[1] = brain stem, read-out: Mean tracer concentration ± SEM, Brain Stem
[2] = cerebellum, read-out: Mean tracer concentration ± SEM, Cerebellum
[3] = frontal cortex, read-out: Mean tracer concentration ± SEM, Frontal Cortex
[4] = hippocampus, read-out: Mean tracer concentration ± SEM, Hippocampus
[5] = plasma, read-out: Mean tracer conc (plasma) ± SEM
[6] = striatum, read-out: Mean tracer concentration ± SEM, Striatum

| concentration at 5 min [1] | concentration at 10 min [1] | concentration at 20 min [1] | concentration at 40 min [1] | concentration at 5 min [2] | concentration at 10 min [2] | concentration at 20 min [2] | concentration at 40 min [2] | concentration at 5 min [3] | concentration at 10 min [3] | concentration at 20 min [3] | concentration at 40 min [3] | concentration at 5 min [4] | concentration at 10 min [4] | concentration at 20 min [4] | concentration at 40 min [4] | concentration at 5 min [5] | concentration at 10 min [5] | concentration at 20 min [5] | concentration at 40 min [5] | SMILES | further results |
| --- | --- | --- | --- | --- | --- | --- | --- | --- | --- | --- | --- | --- | --- | --- | --- | --- | --- | --- | --- | --- | --- |
| 3.13 ± 0.22 ng/g | 2.01 ± 0.17 ng/g | 1.18 ± 0.06 ng/g | 0.42 ± 0.02 ng/g | 3.06 ± 0.22 ng/g | 1.76 ± 0.13 ng/g | 0.88 ± 0.06 ng/g | 0.31 ± 0.02 ng/g | 3.55 ± 0.33 ng/g | 1.92 ± 0.16 ng/g | 0.92 ± 0.05 ng/g | 0.31 ± 0.02 ng/g | 2.9 ± 0.2 ng/g | 1.91 ± 0.14 ng/g | 1.01 ± 0.06 ng/g | 0.34 ± 0.02 ng/g | 6.2 ± 0.5 ng/mL | 3.65 ± 0.26 ng/mL | 1.94 ± 0.15 ng/mL | 0.73 ± 0.04 ng/mL | Cc1cc(N2CC(F)C2)cc(OCc2ccc([C@@H](C)[C@@]3(C)C(=O)NC[C@@H]3CF)cc2)n1 [Example 3, (3R,4R)-3-[(1R)-1-[4-[[4-(3-fluoroazetidin-1-yl)-6-methyl-2-pyridyl]oxymethyl]phenyl]ethyl]-4-(fluoromethyl)-3-methyl-pyrrolidin-2-one] | concentration at 5 min [6]: 3.57 ± 0.28 ng/g; concentration at 10 min [6]: 2.14 ± 0.16 ng/g; concentration at 20 min [6]: 1.09 ± 0.07 ng/g; concentration at 40 min [6]: 0.36 ± 0.04 ng/g |
| 8.73 ± 0.51 ng/g | 5.27 ± 0.85 ng/g | 2.56 ± 0.33 ng/g | 1.08 ± 0.08 ng/g | 8.76 ± 0.48 ng/g | 4.78 ± 0.78 ng/g | 2.08 ± 0.22 ng/g | 0.88 ± 0.11 ng/g | 9.48 ± 0.57 ng/g | 5.07 ± 0.56 ng/g | 2.19 ± 0.24 ng/g | 0.8 ± 0.09 ng/g | 7.66 ± 0.42 ng/g | 4.64 ± 0.78 ng/g | 2.29 ± 0.36 ng/g | 0.74 ± 0.14 ng/g | 9.82 ± 0.82 ng/mL | 5.54 ± 0.8 ng/mL | 2.88 ± 0.37 ng/mL | 1.03 ± 0.12 ng/mL | Cc1cc(N2CC(F)C2)cc(OCc2ccc([C@@H](C)[C@@]3(C)C(=O)NC[C@@H]3C)cc2)n1 [Example 2, (3R,4R)-3-[(1R)-1-[4-[[4-(3-fluoroazetidin-1-yl)-6-methyl-2-pyridyl]oxymethyl]phenyl]ethyl]-3,4-dimethyl-pyrrolidin-2-one] | concentration at 5 min [6]: 9.36 ± 0.54 ng/g; concentration at 10 min [6]: 5.23 ± 0.91 ng/g; concentration at 20 min [6]: 2.42 ± 0.28 ng/g; concentration at 40 min [6]: 1.06 ± 0.16 ng/g |
| 3.69 ± 0.29 ng/g | 2.46 ± 0.09 ng/g | 1.21 ± 0.08 ng/g | 0.41 ± 0.03 ng/g | 3.52 ± 0.16 ng/g | 1.91 ± 0.05 ng/g | 0.9 ± 0.06 ng/g | 0.28 ± 0.02 ng/g | 4.19 ± 0.29 ng/g | 2.27 ± 0.05 ng/g | 0.98 ± 0.06 ng/g | 0.29 ± 0.02 ng/g | 3.52 ± 0.32 ng/g | 2.33 ± 0.09 ng/g | 1.06 ± 0.07 ng/g | 0.33 ± 0.02 ng/g | 6.3 ± 0.63 ng/mL | 3.37 ± 0.37 ng/mL | 1.72 ± 0.12 ng/mL | 0.48 ± 0.05 ng/mL | Cc1cc(N2CCC2)cc(OCc2ccc([C@@H](C)[C@@]3(C)C(=O)NC[C@@H]3CF)cc2)n1 [Example 1, (3R,4R)-3-[(1R)-1-[4-[[4-(azetidin-1-yl)-6-methyl-2-pyridyl]oxymethyl]phenyl]ethyl]-4-(fluoromethyl)-3-methyl-pyrrolidin-2-one] | concentration at 5 min [6]: 3.94 ± 0.32 ng/g; concentration at 10 min [6]: 2.44 ± 0.13 ng/g; concentration at 20 min [6]: 1.12 ± 0.07 ng/g; concentration at 40 min [6]: 0.34 ± 0.02 ng/g |

From US20230096051A1, “CGRP ANTIGONISTS USEFUL AS TRACER COMPOUNDS FOR POSITRON EMISSION TOMOGRAPHY” (Eli Lilly and Company, priority 2019, published 2023)
